Paper PMC6433648 (British Journal of Pharmacology, 2019)
Each block holds one compound with its values, some of them ahead of it.

What was measured:
human Nluc‐A1AR [1] = target: T1, human Nluc‐A1AR (Homo sapiens, UniProt P30542); assay: Fluorescent agonist saturation binding in presence/absence of allosteric modulator (NanoBRET); design: expressed in transfected cells; key to B max: Bmax expressed as BRET ratio from saturation fit; settings: Human Nluc A1R
T1 sequence (P30542 2-326 limits assumed): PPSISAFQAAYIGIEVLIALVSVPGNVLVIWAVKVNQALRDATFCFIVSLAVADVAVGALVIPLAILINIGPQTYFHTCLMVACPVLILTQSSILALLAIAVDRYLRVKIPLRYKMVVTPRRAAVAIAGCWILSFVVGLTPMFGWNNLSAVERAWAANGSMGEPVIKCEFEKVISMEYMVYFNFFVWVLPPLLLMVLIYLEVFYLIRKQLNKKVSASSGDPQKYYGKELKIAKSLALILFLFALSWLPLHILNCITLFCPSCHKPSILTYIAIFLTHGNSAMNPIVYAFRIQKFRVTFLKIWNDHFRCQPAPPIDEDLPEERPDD
Description: (§1) Pooled fluorescent agonist saturation assays obtained in the presence and absence of a fixed concentration of allosteric modulator were simultaneously fitted to the following equation: BRET ratio=Bmax×B/B+KD+M×B+C.

rat Nluc‐A1AR [2] = target: T2, rat Nluc‐A1AR (Rattus norvegicus, UniProt P25099); assay: as above; design: expressed in transfected cells; key to B max: Bmax expressed as BRET ratio from saturation fit; settings: Rat Nluc A1R
T2 sequence (P25099 2-326 limits assumed): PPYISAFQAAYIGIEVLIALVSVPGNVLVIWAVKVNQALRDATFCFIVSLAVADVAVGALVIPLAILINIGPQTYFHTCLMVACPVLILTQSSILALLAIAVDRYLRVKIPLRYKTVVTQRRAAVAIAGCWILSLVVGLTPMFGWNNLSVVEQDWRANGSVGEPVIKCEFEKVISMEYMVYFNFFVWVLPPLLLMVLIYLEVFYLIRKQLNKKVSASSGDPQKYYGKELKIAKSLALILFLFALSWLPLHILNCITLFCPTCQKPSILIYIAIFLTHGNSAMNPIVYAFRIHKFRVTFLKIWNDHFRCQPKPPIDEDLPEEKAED
Description: as §1

human Nluc‐A1AR [3] = target: T1, human Nluc‐A1AR; assay: cell-based
Description: (§2) The fluorescent antagonist saturation, competition‐binding, allosteric modulator binding cooperativity, and the fluorescent agonist saturations in the presence/absence of allosteric modulator assays were performed on the stably transfected HEK293T cells expressing human or rat Nluc‐A1R. The cells were seeded 24 hr before experimentation in white walled, poly‐D‐lysine coated 96‐well microplates (Thermo Scientific, Loughborough, UK) at a density of 25,000 cells per well.
(§3) For each experiment, ligands were added simultaneously, and the 96‐well plate was incubated for 1 hr at 37°C (no CO2). Following this, the Nluc substrate furimazine (Promega) was added to give a final concentration of 10 μM and then incubated for 5 min at 37°C. For all experiments, the luminescence and resulting BRET were measured using the PHERAstar FS plate reader (BMG Labtech) using filtered light emissions at 460 nm (80 nm bandpass) and >610 nm (longpass) at room temperature. The raw BRET ratio was calculated by dividing the >610 nm emission by the 460 nm emission.

rat Nluc‐A1AR [4] = target: T2, rat Nluc‐A1AR; assay: cell-based; settings: agonist pIC50, Rat, 25 nM CA200645
Description: as §2, §3

rat Nluc‐A1AR [5] = target: T2, rat Nluc‐A1AR; assay: NanoBRET competition binding: inhibition of specific binding of CA200645
human Nluc‐A1AR [6] = target: T1, human Nluc‐A1AR; assay: as above; design: expressed in transfected cells; settings: for IC50: Nluc‐human A1AR, 25 nM CA200645, HEK293T cells; for Ki: read-out: pK i ± SEM (converted); for concentrations producing a small direct inhibition of CA200645 binding: more evident at the human A1‐receptor
Description: The IC50 values from competition‐binding curves were used to calculate the K i of the unlabelled ligands using the Cheng–Prusoff equation: Ki=IC50/1+L/KD, where [L] is the concentration of fluorescent ligand in nM, and K D is the dissociation constant of the fluorescent ligand in nM. The K D values used were obtained from the saturation‐binding experiments.

human A1‐receptors = tested on: human A1‐receptors; design: method as in May et al., 2010; settings: PD 81,723 10 μM, CHO cells; ref May et al., 2010; cited from earlier work
[7] = VCP171 0 (control), maximal specific binding (BRET ratio fit)

Compound: O=C(CCCCCNC(=O)COc1ccc(/C=C/C2=[N+]3C(=Cc4ccc(-c5cccs5)n4[B-]3(F)F)C=C2)cc1)NCCCCNc1ncnc2c1ncn2[C@@H]1O[C@H](CO)[C@@H](O)[C@H]1O [ABA‐X‐BY630]
B max (human Nluc‐A1AR [1]; PD 81,723 0 (control)): 0.019 ± 0.002
Kd (human Nluc‐A1AR [1]; VCP171 0 (control)): 589 nM
B max (human Nluc‐A1AR [1]; [7]): 0.019 ± 0.002
B max (human Nluc‐A1AR [1]; with 10 μM PD 81,723): 0.035 ± 0.005
B max (human Nluc‐A1AR [1]; with 10 μM VCP171): 0.033 ± 0.004
B max (human Nluc‐A1AR [1]; with 30 μM PD 81,723): 0.035 ± 0.008
B max (human Nluc‐A1AR [1]; with 30 μM VCP171): 0.036 ± 0.003
B max (rat Nluc‐A1AR [2]; PD 81,723 0 (control)): 0.031 ± 0.002
Kd (rat Nluc‐A1AR [2]; PD 81,723 0 (control)): 955 nM
Kd (rat Nluc‐A1AR [2]; VCP171 0 (control)): 891 nM
B max (rat Nluc‐A1AR [2]; [7]): 0.031 ± 0.014
B max (rat Nluc‐A1AR [2]; with 10 μM PD 81,723): 0.040 ± 0.005
B max (rat Nluc‐A1AR [2]; with 10 μM VCP171): 0.048 ± 0.009
B max (rat Nluc‐A1AR [2]; with 30 μM PD 81,723): 0.054 ± 0.007
B max (rat Nluc‐A1AR [2]; with 30 μM VCP171): 0.072 ± 0.021

Compound: CCNC(=O)[C@H]1O[C@@H](n2cnc3c(NCCCCNC(=O)CCCCCNC(=O)COc4ccc(/C=C/C5=[N+]6C(=Cc7ccc(-c8cccs8)n7[B-]6(F)F)C=C5)cc4)ncnc32)[C@H](O)[C@@H]1O [ABEA‐X‐BY630]
B max (human Nluc‐A1AR [1]; PD 81,723 0 (control)): 0.007 ± 0.001
Kd (human Nluc‐A1AR [1]; PD 81,723 0 (control)): 977 nM
Kd (human Nluc‐A1AR [1]; VCP171 0 (control)): 1020 nM
B max (human Nluc‐A1AR [1]; [7]): 0.006 ± 0.001
B max (human Nluc‐A1AR [1]; with 10 μM PD 81,723): 0.012 ± 0.003
B max (human Nluc‐A1AR [1]; with 10 μM VCP171): 0.013 ± 0.002
B max (human Nluc‐A1AR [1]; with 30 μM PD 81,723): 0.016 ± 0.004
B max (human Nluc‐A1AR [1]; with 30 μM VCP171): 0.016 ± 0.002
B max (rat Nluc‐A1AR [2]; PD 81,723 0 (control)): 0.015 ± 0.002
Kd (rat Nluc‐A1AR [2]; PD 81,723 0 (control)): 1820 nM
Kd (rat Nluc‐A1AR [2]; VCP171 0 (control)): 891 nM
B max (rat Nluc‐A1AR [2]; [7]): 0.010 ± 0.001
B max (rat Nluc‐A1AR [2]; with 10 μM PD 81,723): 0.018 ± 0.002
B max (rat Nluc‐A1AR [2]; with 10 μM VCP171): 0.021 ± 0.002
B max (rat Nluc‐A1AR [2]; with 30 μM PD 81,723): 0.032 ± 0.01
B max (rat Nluc‐A1AR [2]; with 30 μM VCP171): 0.026 ± 0.003

Compound: N#Cc1c(N)nc(SCc2csc(-c3ccc(Cl)cc3)n2)c(C#N)c1-c1ccc(OCCO)cc1 [Capadenoson, 2‐amino‐6‐[[2‐(4‐chlorophenyl)‐1,3‐thiazol‐4‐yl]methylsulfanyl]‐4‐[4‐(2‐hydroxyethoxy)phenyl]pyridine‐3,5‐dicarbonitrile]
IC50 (human Nluc‐A1AR [3]): 282 nM
IC50 (rat Nluc‐A1AR [4]; PD 81,723 0 (control)): 275 nM
IC50 (rat Nluc‐A1AR [4]; VCP171 0 (control)): 251 nM
IC50 (rat Nluc‐A1AR [5]): 186 nM
Ki (rat Nluc‐A1AR [5]): 102 nM
IC50 (human Nluc‐A1AR [6]): 245 nM
Ki (human Nluc‐A1AR [6]): 141 nM

Compound: O=C(Cc1ccccc1)Nc1nc2ccc(Cl)cc2c2nc(-c3ccco3)nn12 [MRS1220, N‐[9‐chloro‐2‐(furan‐2‐yl)‐[1,2,4]triazolo[1,5‐c]quinazolin‐5‐yl]‐2‐phenylacetamide]
IC50 (rat Nluc‐A1AR [5]): 1950 nM
Ki (rat Nluc‐A1AR [5]): 1070 nM

Compound: Cc1sc(N)c(C(=O)c2cccc(C(F)(F)F)c2)c1C [PD 81,723, (2‐amino‐4,5‐dimethylthiophen‐3‐yl)(3‐(trifluoromethyl)phenyl)methanone]
effect on dissociation of BY630‐ABA (human A1‐receptors): slow the dissociation
IC50 (rat Nluc‐A1AR [5]): > 100000 nM
concentrations producing a small direct inhibition of CA200645 binding (human Nluc‐A1AR [6]): > 100 µM

Results, then the compound that gave them:

IC50 (rat Nluc‐A1AR [5]): 129000 nM
Ki (rat Nluc‐A1AR [5]): 70800 nM
IC50 (human Nluc‐A1AR [6]): 40700 nM
concentrations producing a small direct inhibition of CA200645 binding (human Nluc‐A1AR [6]): 10 to 100 µM
Ki (human Nluc‐A1AR [6]): 23400 nM
Compound: Nc1scc(-c2cccc(C(F)(F)F)c2)c1C(=O)c1ccccc1 [VCP171, (2‐amino‐4‐(3‐(trifluoromethyl)phenyl)thiophen‐3‐yl)(phenyl)methanone]

IC50 (rat Nluc‐A1AR [5]): 17400 nM
Ki (rat Nluc‐A1AR [5]): 9550 nM
Compound: Nc1sc(-c2ccc(C(=O)NCCCCCCNc3ncnc4c3ncn4[C@@H]3O[C@H](CO)[C@@H](O)[C@H]3O)cc2)c(-c2cccc(C(F)(F)F)c2)c1C(=O)c1ccccc1 [VCP746, 4‐(5‐amino‐4‐benzoyl‐3‐(3‐(trifluoromethyl)phenyl)thiophen‐2‐yl)‐N‐(6‐(9‐((2R,3R,4S,5R)‐3,4‐dihydroxy‐5‐(hydroxylmethyl)tetrahydro‐furan‐2‐yl)‐9H‐purin‐6‐ylamino)hexyl)benzamide]
